Measurements from publication PMC12624316, “Studies of α′,β′‐Epoxyketone Synthesis by Small‐Molecule Flavins and Flavoenzymes” (Angewandte Chemie (International Ed. in English), 2025).

Target: T1, EpxF (Goodfellowiella coeruleoviolacea, UniProt V5RNC8)
T1 construct: expressed in Escherichia coli; homodimer; residues 253-264 and 336-346 not defined in the density
T1 sequence (V5RNC8 2-563): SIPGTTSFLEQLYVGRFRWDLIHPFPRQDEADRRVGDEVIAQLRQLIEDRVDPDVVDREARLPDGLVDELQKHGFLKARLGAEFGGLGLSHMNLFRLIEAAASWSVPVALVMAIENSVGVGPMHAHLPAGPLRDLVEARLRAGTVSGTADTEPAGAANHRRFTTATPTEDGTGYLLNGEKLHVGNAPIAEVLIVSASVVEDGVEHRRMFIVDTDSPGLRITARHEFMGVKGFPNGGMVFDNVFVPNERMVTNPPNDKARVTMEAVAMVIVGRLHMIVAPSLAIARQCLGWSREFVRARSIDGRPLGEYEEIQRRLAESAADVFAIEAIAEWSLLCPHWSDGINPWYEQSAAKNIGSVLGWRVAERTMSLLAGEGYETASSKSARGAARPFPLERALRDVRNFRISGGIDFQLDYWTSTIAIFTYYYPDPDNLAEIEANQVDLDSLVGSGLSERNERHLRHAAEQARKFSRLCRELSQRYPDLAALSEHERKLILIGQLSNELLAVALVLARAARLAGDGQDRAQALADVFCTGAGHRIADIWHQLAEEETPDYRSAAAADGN
Experiment: X-ray crystal structure, […] Å
Type: binding
Conditions: FAD bound in both subunits of the homodimer, adenine anchored in the dimer interface

Cc1cc2nc3c(=O)[nH]c(=O)nc-3n(C[C@H](O)[C@H](O)[C@H](O)COP(=O)(O)OP(=O)(O)OC[C@H]3O[C@@H](n4cnc5c(N)ncnc54)[C@H](O)[C@@H]3O)c2cc1C [FAD]
X-ray crystal structure, 2.4 Å: electron density map depicts FAD bound at two distinct catalytic centers
